Like-named read-outs stand apart in the source and are kept apart here.
How the values were obtained:
Assay type in all cases: in vivo
[1] = tested on: Diabrotica balteata (Corn root worm); assay: Diabrotica balteata (Corn root worm), maize sprouts sprayed, L2 larvae mortality; settings: 96 h, application rate of 200 ppm, L2 larvae on maize sprouts, assessed 4 days after infestation, read-out: control (mortality)
Procedure: Diabrotica balteata (Corn root worm):
Maize sprouts placed onto an agar layer in 24-well microtiter plates were treated with aqueous test solutions prepared from 10,000 ppm DMSO stock solutions by spraying. After drying, the plates were infested with L2 larvae (6 to 10 per well). The samples were assessed for mortality 4 days after infestation.

[2] = tested on: Euschistus heros (Neotropical Brown Stink Bug); assay: Euschistus heros (Neotropical Brown Stink Bug): Feeding/contact activity; settings: 120 h, read-out: control (mortality)
Procedure: Euschistus heros (Neotropical Brown Stink Bug): Feeding/contact activity Soybean leaves on agar in 24-well microtiter plates were sprayed with aqueous test solutions prepared from 10,000 ppm DMSO stock solutions. After drying the leaves were infested with N2 nymphs. The samples were assessed for mortality 5 days after infestation.

[3] = tested on: Myzus persicae (Green peach aphid); assay: Myzus persicae (Green peach aphid): Feeding/Contact activity; settings: foliar, 144 h, read-out: control (mortality)
Procedure: Myzus persicae (Green peach aphid): Feeding/Contact activity Sunflower leaf discs were placed onto agar in a 24-well microtiter plate and sprayed with aqueous test solutions prepared from 10,000 ppm DMSO stock solutions. After drying, the leaf discs were infested with an aphid population of mixed ages. The samples were assessed for mortality 6 days after infestation.

[4] = tested on: Plutella xylostella (Diamond back moth); assay: Plutella xylostella (Diamond back moth): Feeding/contact activity; settings: 120 h, application rate of 200 ppm, L2 larvae on artificial diet, assessed 5 days after infestation, read-out: control (mortality)
Procedure: Plutella xylostella (Diamond back moth): Feeding/contact activity
24-well microtiter plates with artificial diet were treated with aqueous test solutions prepared from 10,000 ppm DMSO stock solutions by pipetting. After drying, the plates were infested with L2 larvae (10 to 15 per well). The samples were assessed for mortality 5 days after infestation.

[5] = tested on: Spodoptera littoralis (Egyptian cotton leaf worm); assay: Spodoptera littoralis (Egyptian cotton leaf worm): Feeding/contact activity; settings: foliar, 72 h, read-out: control (mortality)
Procedure: Spodoptera littoralis (Egyptian cotton leaf worm): Feeding/contact activity Cotton leaf discs were placed onto agar in 24-well microtiter plates and sprayed with aqueous test solutions prepared from 10,000 ppm DMSO stock solutions. After drying the leaf discs were infested with five L1 larvae. The samples were assessed for mortality 3 days after infestation.

[6] = tested on: Tetranychus urticae (Two-spotted spider mite); assay: Tetranychus urticae (Two-spotted spider mite): Feeding/contact activity; settings: foliar, 192 h, read-out: control (mortality)
Procedure: Tetranychus urticae (Two-spotted spider mite): Feeding/contact activity
Bean leaf discs on agar in 24-well microtiter plates were sprayed with aqueous test solutions prepared from 10,000 ppm DMSO stock solutions. After drying the leaf discs were infested with a mite population of mixed ages. The samples were assessed for mortality on mixed population (mobile stages) 8 days after infestation.

[7] = application rate of 200 ppm, N2 nymphs on soybean leaves, assessed 5 days after infestation
[8] = application rate of 200 ppm, aphid population of mixed ages on sunflower leaf discs, assessed 6 days after infestation
[9] = application rate of 200 ppm, L1 larvae on cotton leaf discs, assessed 3 days after infestation
[10] = application rate of 200 ppm, mite population of mixed ages (mobile stages) on bean leaf discs, assessed 8 days after infestation

Measured: mortality at 200 ppm

Cn1c(-n2cc(-c3ccc(Cl)c(C(=O)NC4(C#N)CC4)c3)cn2)ccc1C(F)(C(F)(F)F)C(F)(F)F [Compound 1, 2-chloro-N-(1-cyanocyclopropyl)-5-[1-[1-methyl-5-[1,2,2,2-tetrafluoro-1-(trifluoromethyl)ethyl]pyrrol-2-yl]pyrazol-4-yl]benzamide]
≥ 80%: [1] | [2]; [7] | [3]; [8] | [4] | [5]; [9] | [6]; [10]

Cn1c(C(F)(C(F)(F)F)C(F)(F)F)cc(Br)c1-n1cc(-c2ccc(Cl)c(C(=O)NC3CC3)c2)cn1 [Compound 3, 5-[1-[3-bromo-1-methyl-5-[1,2,2,2-tetrafluoro-1-(trifluoromethyl)ethyl]pyrrol-2-yl]pyrazol-4-yl]-2-chloro-N-cyclopropyl-benzamide]
≥ 80%: [1] | [2]; [7] | [4] | [5]; [9] | [6]; [10]

Cn1c(-c2cc(-c3ccc(Cl)c(C(=O)NC4(C#N)CC4)c3)on2)ccc1C(F)(C(F)(F)F)C(F)(F)F [Compound 5, 2-chloro-N-(1-cyanocyclopropyl)-5-[3-[1-methyl-5-[1,2,2,2-tetrafluoro-1-(trifluoromethyl)ethyl]pyrrol-2-yl]isoxazol-5-yl]benzamide]
≥ 80%: [1] | [2]; [7] | [4] | [5]; [9] | [6]; [10]

Cn1c(C(F)(C(F)(F)F)C(F)(F)F)cc([N+](=O)[O-])c1-n1cc(-c2ccc(Cl)c(C(=O)NC3(C#N)CC3)c2)cn1 [Compound 7, 2-chloro-N-(1-cyanocyclopropyl)-5-[1-[1-methyl-3-nitro-5-[1,2,2,2-tetrafluoro-1-(trifluoromethyl)ethyl]pyrrol-2-yl]pyrazol-4-yl]benzamide]
≥ 80%: [5]; [9]

N#CCn1c(C(F)(C(F)(F)F)C(F)(F)F)cc(Br)c1-n1cc(-c2ccc(Cl)c(C(=O)NC3(C#N)CC3)c2)cn1 [Compound 13, 5-[1-[3-bromo-1-(cyanomethyl)-5-[1,2,2,2-tetrafluoro-1-(trifluoromethyl)ethyl]pyrrol-2-yl]pyrazol-4-yl]-2-chloro-N-(1-cyanocyclopropyl)benzamide]
≥ 80%: [1] | [2]; [7] | [4] | [5]; [9] | [6]; [10]

Cn1c(Br)c(Br)c(Br)c1-n1cc(-c2ccc(Cl)c(C(=O)NC3(C#N)CC3)c2)cn1 [Compound 15, 2-chloro-N-(1-cyanocyclopropyl)-5-[1-(3,4,5-tribromo-1-methyl-pyrrol-2-yl)pyrazol-4-yl]benzamide]
≥ 80%: [1] | [4] | [5]; [9]

Cn1c(C(F)(F)C(F)(F)F)cc(Br)c1-n1cc(-c2ccc(Cl)c(C(=O)NC3(C#N)CC3)c2)cn1 [Compound 31, 5-[1-[3-bromo-1-methyl-5-(1,1,2,2,2-pentafluoroethyl)pyrrol-2-yl]pyrazol-4-yl]-2-chloro-N-(1-cyanocyclopropyl)benzamide]
≥ 80%: [1] | [2]; [7] | [3]; [8] | [6]; [10]

Cn1c(SC(F)(F)F)cc(Cl)c1-n1cc(-c2ccc(Cl)c(C(=O)NC3(C#N)CC3)c2)cn1 [Compound 32, 2-chloro-5-[1-[3-chloro-1-methyl-5-(trifluoromethylsulfanyl)pyrrol-2-yl]pyrazol-4-yl]-N-(1-cyanocyclopropyl)benzamide]
≥ 80%: [1] | [2]; [7] | [3]; [8] | [5]; [9] | [6]; [10]

CC(=O)N(C(=O)c1cc(-c2cnn(-c3ccc(C(F)(C(F)(F)F)C(F)(F)F)n3C3CC3)c2)ccc1Cl)C(C)(C)C#N [Compound 35, N-acetyl-2-chloro-N-(1-cyano-1-methyl-ethyl)-5-[1-[1-cyclopropyl-5-[1,2,2,2-tetrafluoro-1-(trifluoromethyl)ethyl]pyrrol-2-yl]pyrazol-4-yl]benzamide]
≥ 80%: [2]; [7] | [3]; [8] | [5]; [9] | [6]; [10]

CC(=O)N(C(=O)c1cc(-c2cnn(-c3ccc(C(F)(C(F)(F)F)C(F)(F)F)n3C3CC3)c2)ccc1Cl)C1(C#N)CC1 [Compound 36, N-acetyl-2-chloro-N-(1-cyanocyclopropyl)-5-[1-[1-cyclopropyl-5-[1,2,2,2-tetrafluoro-1-(trifluoromethyl)ethyl]pyrrol-2-yl]pyrazol-4-yl]benzamide]
≥ 80%: [2]; [7] | [3]; [8] | [4] | [5]; [9] | [6]; [10]

CC(C)(C#N)NC(=O)c1cc(-c2cnn(-c3ccc(C(F)(C(F)(F)F)C(F)(F)F)n3C3CC3)c2)ccc1Cl [Compound 37, 2-chloro-N-(1-cyano-1-methyl-ethyl)-5-[1-[1-cyclopropyl-5-[1,2,2,2-tetrafluoro-1-(trifluoromethyl)ethyl]pyrrol-2-yl]pyrazol-4-yl]benzamide]
≥ 80%: [2]; [7] | [3]; [8] | [4] | [5]; [9] | [6]; [10]

CN(C(=O)c1cc(-c2cnn(-c3ccc(C(F)(C(F)(F)F)C(F)(F)F)n3C3CC3)c2)ccc1Cl)C1(C#N)CC1 [Compound 38, 2-chloro-N-(1-cyanocyclopropyl)-5-[1-[1-cyclopropyl-5-[1,2,2,2-tetrafluoro-1-(trifluoromethyl)ethyl]pyrrol-2-yl]pyrazol-4-yl]-N-methyl-benzamide]
≥ 80%: [2]; [7] | [3]; [8] | [4] | [5]; [9] | [6]; [10]

COC(=O)N(C(=O)c1cc(-c2cnn(-c3ccc(C(F)(C(F)(F)F)C(F)(F)F)n3C3CC3)c2)ccc1Cl)C1(C#N)CC1 [Compound 39, methyl N-[2-chloro-5-[1-[1-cyclopropyl-5-[1,2,2,2-tetrafluoro-1-(trifluoromethyl)ethyl]pyrrol-2-yl]pyrazol-4-yl]benzoyl]-N-(1-cyanocyclopropyl)carbamate]
≥ 80%: [2]; in Glycine max | [3] | [5] | [6]

N#CC1(NC(=O)c2cc(-c3cnn(-c4ccc(C(F)(C(F)(F)F)C(F)(F)F)n4C4CC4)c3)ccc2Cl)CC1 [Compound 40, 2-chloro-N-(1-cyanocyclopropyl)-5-[1-[1-cyclopropyl-5-[1,2,2,2-tetrafluoro-1-(trifluoromethyl)ethyl]pyrrol-2-yl]pyrazol-4-yl]benzamide]
≥ 80%: [2]; [7] | [4] | [5]; [9] | [6]; [10]

N#CC1(NC(=O)c2cc(-c3cnn(-c4c(Br)c(Br)c(SC(F)(F)F)n4C4CC4)c3)ccc2Cl)CC1 [Compound 41, 2-chloro-N-(1-cyanocyclopropyl)-5-[1-[3,4-dibromo-1-cyclopropyl-5-(trifluoromethylsulfanyl)pyrrol-2-yl]pyrazol-4-yl]benzamide]
≥ 80%: [1] | [2]; [7] | [4] | [5]; [9] | [6]; [10]
